# Patent US9951065B2 (Gilead Sciences, Inc., priority 2015, dated 2018)
# Target: T1, IDO1 (Homo sapiens, UniProt P14902)
# T1 construct: HeLa cells were treated with a test compound in the presence of IFNγ, which induces IDO1 expression; host or cells: H1-HeLa cells, IDO1 induced with IFNγ
# Assay: Cell-based (HeLa) assay for measurement of IDO1 inhibition (kynurenine levels in supernatant after IFNγ induction)
# Settings: HeLa cells, IFNγ-induced IDO1, kynurenine in supernatant, 48 hour incubation; geometric mean of a minimum of four determinations
# How it was run: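 HeLa cells, 1,250 per well, treated with compound (0.5% DMSO final) plus IFNγ to induce IDO1, for 48 h. Supernatant kynurenine measured by TCA hydrolysis at 60 °C, then p-dimethylaminobenzaldehyde, absorbance 480 nm. EC50 from a four-parameter fit normalized to −/+IFNγ controls; geometric mean of at least four runs.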
# T1 sequence (P14902 whole entry): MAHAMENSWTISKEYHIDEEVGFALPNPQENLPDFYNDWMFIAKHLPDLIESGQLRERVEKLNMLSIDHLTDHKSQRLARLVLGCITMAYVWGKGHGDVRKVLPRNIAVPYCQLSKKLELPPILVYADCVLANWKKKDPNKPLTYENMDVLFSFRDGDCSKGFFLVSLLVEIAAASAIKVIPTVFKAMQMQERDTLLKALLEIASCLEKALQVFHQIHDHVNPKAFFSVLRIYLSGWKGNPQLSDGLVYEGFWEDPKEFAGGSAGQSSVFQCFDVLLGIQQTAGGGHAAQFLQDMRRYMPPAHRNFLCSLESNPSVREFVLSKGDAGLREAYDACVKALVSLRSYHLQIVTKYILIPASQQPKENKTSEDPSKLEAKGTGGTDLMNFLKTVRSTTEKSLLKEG
row,SMILES,EC50 [µM]
1,"O/N=C(\Nc1ccc(F)c(Cl)c1)c1cc(F)c(F)c2nc(N[C@@H]3CCCCNC3)[nH]c12 [Example 463, (R)-2-(azepan-3-ylamino)-N-(3-chloro-4-fluorophenyl)-4,5-difluoro-N′-hydroxy-1H-benzo[d]imidazole-7-carboximidamide]",1.02
2,"O/N=C(\Nc1ccc(F)c(Cl)c1)c1cc(F)c(F)c2nc(N[C@@H]3CCCN(C4COC4)C3)[nH]c12 [Example 465, (R)-N-(3-chloro-4-fluorophenyl)-4,5-difluoro-N′-hydroxy-2-((1-(oxetan-3-yl)piperidin-3-yl)amino)-1H-benzo[d]imidazole-7-carboximidamide]",0.957
3,"CN1[C@@H]2CCC(Nc3nc4c(F)c(F)cc(/C(=N/O)Nc5ccc(F)c(Cl)c5)c4[nH]3)[C@H]1CC2 (stereo partly drawn) [Example 469, N-(3-chloro-4-fluorophenyl)-4,5-difluoro-N′-hydroxy-2-(((1R,5R)-8-methyl-8-azabicyclo[3.2.1]octan-2-yl)amino)-1H-benzo[d]imidazole-7-carboximidamide]",0.959
4,"O/N=C(\Nc1ccc(F)c(Cl)c1)c1cc(F)c(F)c2nc(NCCN3CCC[C@H]3C(F)(F)F)[nH]c12 [Example 470, (S)-N-(3-chloro-4-fluorophenyl)-4,5-difluoro-N′-hydroxy-2-((2-(2-(trifluoromethyl)pyrrolidin-1-yl)ethyl)amino)-1H-benzo[d]imidazole-7-carboximidamide]",4.2
5,"O/N=C(\Nc1ccc(F)c(Cl)c1)c1cc(F)c(F)c2nc(NCC34CCCN3CCC4)[nH]c12 [Example 471, N-(3-chloro-4-fluorophenyl)-4,5-difluoro-2-(((hexahydro-1H-pyrrolizin-7a-yl)methyl)amino)-N′-hydroxy-1H-benzo[d]imidazole-7-carboximidamide]",0.852
6,"O/N=C(\Nc1ccc(F)c(Cl)c1)c1cc(F)c(F)c2nc(NC3COCCC3N3CCCC3)[nH]c12 (stereo not shown) [Example 473, N-(3-chloro-4-fluorophenyl)-4,5-difluoro-N′-hydroxy-2-((4-(pyrrolidin-1-yl)tetrahydro-2H-pyran-3-yl)amino)-1H-benzo[d]imidazole-7-carboximidamide]",1.03
7,"CCN(CC)[C@@H]1COC[C@H]1Nc1nc2c(F)c(F)cc(/C(=N/O)Nc3ccc(F)c(Cl)c3)c2[nH]1 [Example 476, N-(3-chloro-4-fluorophenyl)-2-(((3S,4S)-4-(diethylamino)tetrahydrofuran-3-yl)amino)-4,5-difluoro-N′-hydroxy-1H-benzo[d]imidazole-7-carboximidamide]",0.468
8,"C[C@@H]1CN(CCNc2nc3nccc(/C(=N/O)Nc4ccc(F)c(Cl)c4)c3[nH]2)C[C@H](C)O1 [Example 478, N-(3-chloro-4-fluorophenyl)-2-((2-((2S,6R)-2,6-dimethylmorpholino)ethyl)amino)-N′-hydroxy-1H-imidazo[4,5-b]pyridine-7-carboximidamide]",1.01
9,"CCN(CC)[C@H]1COC[C@@H]1Nc1nc2nccc(C(=NO)Nc3ccc(F)c(Cl)c3)c2[nH]1 [Example 480, N-(3-chloro-4-fluorophenyl)-2-(((3R,4R)-4-(diethylamino)tetrahydrofuran-3-yl)amino)-N′-hydroxy-1H-imidazo[4,5-b]pyridine-7-carboximidamide]",1.19
10,"CC1CN(C(C)CNc2nc3nccc(/C(=N/O)Nc4ccc(F)c(Cl)c4)c3[nH]2)CC(C)O1 (stereo not shown) [Example 483, N-(3-chloro-4-fluorophenyl)-2-((2-(2,6-dimethylmorpholino)propyl)amino)-N′-hydroxy-1H-imidazo[4,5-b]pyridine-7-carboximidamide]",0.668
11,"CC1CN(C(C)(C)CNc2nc3nccc(/C(=N/O)Nc4ccc(F)c(Cl)c4)c3[nH]2)CC(C)O1 (stereo not shown) [Example 484, N-(3-chloro-4-fluorophenyl)-2-((2-(2,6-dimethylmorpholino)-2-methylpropyl)amino)-N′-hydroxy-1H-imidazo[4,5-b]pyridine-7-carboximidamide]",0.566
12,"CN(C)[C@@H]1CCC[C@H]1Nc1nc2c(F)c(F)cc(/C(=N/O)Nc3ccc(F)c(Cl)c3)c2[nH]1 [Example 486, N-(3-chloro-4-fluorophenyl)-2-(((1R,2R)-2-(dimethylamino)cyclopentyl)amino)-4,5-difluoro-N′-hydroxy-1H-benzo[d]imidazole-7-carboximidamide]",0.284

# Further lines, results first:
row,EC50 [µM],SMILES
1,2.35,"O/N=C(\Nc1ccc(F)c(Cl)c1)c1cc(F)c(F)c2nc(NC3CCNC3)[nH]c12 (stereo not shown) [Example 464, N-(3-chloro-4-fluorophenyl)-4,5-difluoro-N′-hydroxy-2-(pyrrolidin-3-ylamino)-1H-benzo[d]imidazole-7-carboximidamide]"
2,0.685,"CC1CCN(C)C(CNc2nc3c(F)c(F)cc(/C(=N/O)Nc4ccc(F)c(Cl)c4)c3[nH]2)C1 (stereo not shown) [Example 466, N-(3-chloro-4-fluorophenyl)-2-(((1,4-dimethylpiperidin-2-yl)methyl)amino)-4,5-difluoro-N′-hydroxy-1H-benzo[d]imidazole-7-carboximidamide]"
3,2.12,"O/N=C(\Nc1ccc(F)c(Cl)c1)c1cc(F)c(F)c2nc(NCC3COCCN3)[nH]c12 (stereo not shown) [Example 467, N-(3-chloro-4-fluorophenyl)-4,5-difluoro-N′-hydroxy-2-((morpholin-3-ylmethyl)amino)-1H-benzo[d]imidazole-7-carboximidamide]"
4,> 10,"O/N=C(\Nc1ccc(F)c(Cl)c1)c1cc(F)c(F)c2nc(N[C@@H]3CNC[C@@H]3O)[nH]c12 [Example 468, N-(3-chloro-4-fluorophenyl)-4,5-difluoro-N′-hydroxy-2-(((3R,4S)-4-hydroxypyrrolidin-3-yl)amino)-1H-benzo[d]imidazole-7-carboximidamide]"
5,2.45,"CC1(C)CNC1CNc1nc2c(F)c(F)cc(/C(=N/O)Nc3ccc(F)c(Cl)c3)c2[nH]1 (stereo not shown) [Example 472, N-(3-chloro-4-fluorophenyl)-2-(((3,3-dimethylazetidin-2-yl)methyl)amino)-4,5-difluoro-N′-hydroxy-1H-benzo[d]imidazole-7-carboximidamide]"
6,7.58,"N[C@@H]1CCCC[C@@H]1Nc1nc2c(F)c(F)cc(/C(=N/O)Nc3ccc(F)c(Cl)c3)c2[nH]1 [Example 474, 2-(((1S,2R)-2-aminocyclohexyl)amino)-N-(3-chloro-4-fluorophenyl)-4,5-difluoro-N′-hydroxy-1H-benzo[d]imidazole-7-carboximidamide]"
7,1.99,"CN1Cc2ccccc2C(Nc2nc3c(F)c(F)cc(/C(=N/O)Nc4ccc(F)c(Cl)c4)c3[nH]2)C1 (stereo not shown) [Example 475, N-(3-chloro-4-fluorophenyl)-4,5-difluoro-N′-hydroxy-2-((2-methyl-1,2,3,4-tetrahydroisoquinolin-4-yl)amino)-1H-benzo[d]imidazole-7-carboximidamide]"
8,1.53,"O/N=C(\Nc1ccc(F)c(Cl)c1)c1cc(F)c(F)c2nc(NC3CNCCOC3)[nH]c12 (stereo not shown) [Example 477, 2-((1,4-oxazepan-6-yl)amino)-N-(3-chloro-4-fluorophenyl)-4,5-difluoro-N′-hydroxy-1H-benzo[d]imidazole-7-carboximidamide]"
9,1.07,"CO[C@@H]1CN(C)C[C@H]1Nc1nc2nccc(/C(=N/O)Nc3ccc(F)c(Cl)c3)c2[nH]1 [Example 479, N-(3-chloro-4-fluorophenyl)-N′-hydroxy-2-(((3R,4R)-4-methoxy-1-methylpyrrolidin-3-yl)amino)-1H-imidazo[4,5-b]pyridine-7-carboximidamide]"
10,0.76,"O/N=C(\Nc1ccc(F)c(Cl)c1)c1ccnc2nc(NCCN3CCC[C@H]3C(F)(F)F)[nH]c12 [Example 481, (S)-N-(3-chloro-4-fluorophenyl)-N′-hydroxy-2-((2-(2-(trifluoromethyl)pyrrolidin-1-yl)ethyl)amino)-1H-imidazo[4,5-b]pyridine-7-carboximidamide]"
11,2.65,"CN1CCOC[C@H]1CNc1nc2nccc(/C(=N/O)Nc3ccc(F)c(Cl)c3)c2[nH]1 [Example 482, (R)-N-(3-chloro-4-fluorophenyl)-N′-hydroxy-2-(((4-methylmorpholin-3-yl)methyl)amino)-1H-imidazo[4,5-b]pyridine-7-carboximidamide]"
12,0.639,"CC1CN(CCNc2nc3nccc(/C(=N/O)Nc4ccc(F)c(Cl)c4)c3[nH]2)C(C)CO1 (stereo not shown) [Example 485, N-(3-chloro-4-fluorophenyl)-2-((2-(2,5-dimethylmorpholino)ethyl)amino)-N′-hydroxy-1H-imidazo[4,5-b]pyridine-7-carboximidamide]"
13,1.36,"CN(C)CCSc1nc2nccc(/C(=N/O)Nc3ccc(F)c(Cl)c3)c2[nH]1 [Example 487, N-(3-chloro-4-fluorophenyl)-2-((2-(dimethylamino)ethyl)thio)-N′-hydroxy-1H-imidazo[4,5-b]pyridine-7-carboximidamide]"
14,3.01,"CN(C)CCSc1nc2c(F)c(F)cc(/C(=N/O)Nc3ccc(F)c(Cl)c3)c2[nH]1 [Example 488, N-(3-chloro-4-fluorophenyl)-2-((2-(dimethylamino)ethyl)thio)-4,5-difluoro-N′-hydroxy-1H-benzo[d]imidazole-7-carboximidamide]"
15,0.289,"OCC1CCCCN1CCNc1nc2c(F)c(F)cc(/C(=N/O)Nc3ccc(F)c(Cl)c3)c2[nH]1 (stereo not shown) [Example 489, N-(3-chloro-4-fluorophenyl)-4,5-difluoro-N′-hydroxy-2-((2-(2-(hydroxymethyl)piperidin-1-yl)ethyl)amino)-1H-benzo[d]imidazole-7-carboximidamide]"
16,0.186,"OCC1CCCN1CCNc1nc2c(F)c(F)cc(/C(=N/O)Nc3ccc(F)c(Cl)c3)c2[nH]1 (stereo not shown) [Example 490, N-(3-chloro-4-fluorophenyl)-4,5-difluoro-N′-hydroxy-2-((2-(2-(hydroxymethyl)pyrrolidin-1-yl)ethyl)amino)-1H-benzo[d]imidazole-7-carboximidamide]"
